Measured values published in ChEMBL document CHEMBL1201862, “PubChem BioAssay data set” (2004).
The source made the active and inactive calls.

Experiments:
cells = format: functional
[1] = THP-1 cell cytotoxicity, dose response, cytotoxicity control for non-replicating M. tuberculosis project (AID 489025); format: functional
[2] = microbe, parasite or virus in culture; format: functional; settings: Mycobacterium tuberculosis
Bcl-2-related protein A1 = target: T1, Bcl-2-related protein A1 (Mus musculus, UniProt Q07440); format: functional;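 further: confirmatory dose–response counterscreen on Bfl-1, used to check hits from a UBC13 polyubiquitin inhibitor campaign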
T1 sequence (Q07440 whole entry): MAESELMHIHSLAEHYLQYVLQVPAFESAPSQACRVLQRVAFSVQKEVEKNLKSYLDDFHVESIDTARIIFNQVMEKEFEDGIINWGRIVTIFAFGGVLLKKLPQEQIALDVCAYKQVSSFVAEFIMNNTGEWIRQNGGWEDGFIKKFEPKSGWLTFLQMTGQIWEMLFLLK

[3] = target: T2, Ubiquitin-conjugating enzyme E2 N (Homo sapiens, UniProt P61088); format: functional
T2 sequence (P61088 whole entry): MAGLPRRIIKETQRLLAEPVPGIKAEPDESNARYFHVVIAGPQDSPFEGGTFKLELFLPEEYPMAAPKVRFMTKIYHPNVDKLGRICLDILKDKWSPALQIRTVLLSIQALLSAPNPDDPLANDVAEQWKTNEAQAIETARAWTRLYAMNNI

[4] = target: T2, Ubiquitin-conjugating enzyme E2 N; format: functional; remark: listed apart in the source
[5] = HEK-293T cell viability reduction – luminescence, B-cell screen hits, cytotoxicity control for BCR NF-kB inhibitor project, dose response (AID 489021); format: functional, cell-based;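 further: HEK-293T cells carrying an NF-kB luciferase reporter; cells exposed to compound for about 14 hours before viability readout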
[6] = target: T3, Heat shock factor protein 1 (Mus musculus, UniProt P38532); test: decrease of HSF1-responsive luciferase luminescence – cell-based, NIH3T3, dose retest, confirmation (AID 2382); format: functional;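 further: NIH3T3 fibroblasts with HSF1-driven luciferase reporter stressed by proteasome inhibitor MG132; luminescence from HSF1-driven luciferase expression after 8 hours of MG132 stress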
T3 sequence (P38532 whole entry): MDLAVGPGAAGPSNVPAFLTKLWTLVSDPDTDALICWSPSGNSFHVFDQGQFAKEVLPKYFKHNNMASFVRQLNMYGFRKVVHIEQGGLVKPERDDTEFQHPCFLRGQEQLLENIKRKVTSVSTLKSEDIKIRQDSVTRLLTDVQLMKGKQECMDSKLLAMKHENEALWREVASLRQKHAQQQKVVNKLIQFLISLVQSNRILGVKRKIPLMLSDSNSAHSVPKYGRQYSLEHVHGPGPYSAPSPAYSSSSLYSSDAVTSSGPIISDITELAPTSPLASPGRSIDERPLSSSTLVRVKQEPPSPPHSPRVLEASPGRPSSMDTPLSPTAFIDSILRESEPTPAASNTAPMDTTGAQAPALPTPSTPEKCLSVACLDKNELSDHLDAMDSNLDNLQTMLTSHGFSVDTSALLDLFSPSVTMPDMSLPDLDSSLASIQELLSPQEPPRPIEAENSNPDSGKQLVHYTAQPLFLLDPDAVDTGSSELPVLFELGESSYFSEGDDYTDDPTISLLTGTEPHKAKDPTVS

Cytochrome P450 3A4 = Cytochrome P450 3A4 (Homo sapiens, UniProt P08684); settings: Potency;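 further: confirmatory qHTS run detecting inhibitors and substrates of CYP3A4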
Sequence of Cytochrome P450 3A4 (P08684 whole entry): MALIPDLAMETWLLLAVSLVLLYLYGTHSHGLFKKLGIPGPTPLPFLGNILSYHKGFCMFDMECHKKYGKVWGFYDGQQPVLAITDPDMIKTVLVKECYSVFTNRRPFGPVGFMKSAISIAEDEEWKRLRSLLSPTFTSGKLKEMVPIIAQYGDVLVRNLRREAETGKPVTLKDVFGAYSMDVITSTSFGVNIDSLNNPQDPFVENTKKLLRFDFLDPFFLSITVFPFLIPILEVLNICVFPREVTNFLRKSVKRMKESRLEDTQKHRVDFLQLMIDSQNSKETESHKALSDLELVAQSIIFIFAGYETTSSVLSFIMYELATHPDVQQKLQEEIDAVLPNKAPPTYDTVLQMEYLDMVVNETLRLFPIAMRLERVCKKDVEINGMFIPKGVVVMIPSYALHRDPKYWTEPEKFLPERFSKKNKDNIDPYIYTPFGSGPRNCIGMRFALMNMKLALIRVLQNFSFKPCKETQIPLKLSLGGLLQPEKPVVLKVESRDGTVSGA

Cytochrome P450 2C9 = Cytochrome P450 2C9 (Homo sapiens, UniProt P11712)
Sequence of Cytochrome P450 2C9 (P11712 whole entry): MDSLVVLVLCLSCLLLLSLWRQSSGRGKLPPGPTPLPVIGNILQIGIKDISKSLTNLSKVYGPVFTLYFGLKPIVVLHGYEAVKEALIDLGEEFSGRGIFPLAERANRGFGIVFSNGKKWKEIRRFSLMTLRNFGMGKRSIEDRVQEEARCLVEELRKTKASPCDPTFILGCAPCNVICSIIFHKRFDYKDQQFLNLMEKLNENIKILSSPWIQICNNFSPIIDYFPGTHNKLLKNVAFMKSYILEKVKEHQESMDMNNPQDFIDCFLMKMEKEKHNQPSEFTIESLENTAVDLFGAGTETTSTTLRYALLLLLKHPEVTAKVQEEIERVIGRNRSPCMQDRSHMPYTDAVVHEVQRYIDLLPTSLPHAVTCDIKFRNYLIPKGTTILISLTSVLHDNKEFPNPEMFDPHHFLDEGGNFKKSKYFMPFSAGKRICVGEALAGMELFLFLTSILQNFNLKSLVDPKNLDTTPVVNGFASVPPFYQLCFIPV

Cytochrome P450 1A2 = target: T4, Cytochrome P450 1A2 (Homo sapiens, UniProt P05177);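 further: PubChem cytochrome P450 panel assay, CYP1A2 panel member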
T4 sequence (P05177 whole entry): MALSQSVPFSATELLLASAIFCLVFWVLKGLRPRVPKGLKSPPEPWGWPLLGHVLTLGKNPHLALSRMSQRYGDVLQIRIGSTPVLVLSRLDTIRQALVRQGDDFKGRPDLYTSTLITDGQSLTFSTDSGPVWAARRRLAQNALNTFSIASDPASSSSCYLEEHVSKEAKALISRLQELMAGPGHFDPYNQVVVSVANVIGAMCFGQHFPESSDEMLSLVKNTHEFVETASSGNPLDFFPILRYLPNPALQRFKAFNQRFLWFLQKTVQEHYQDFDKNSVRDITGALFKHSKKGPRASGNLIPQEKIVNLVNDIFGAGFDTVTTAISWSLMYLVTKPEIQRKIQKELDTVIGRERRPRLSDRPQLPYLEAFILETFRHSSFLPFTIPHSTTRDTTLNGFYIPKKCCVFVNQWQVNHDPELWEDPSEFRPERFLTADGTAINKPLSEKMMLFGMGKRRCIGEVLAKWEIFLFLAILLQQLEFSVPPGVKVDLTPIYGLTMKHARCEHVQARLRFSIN

Streptococcus = test: GAS UMAA2166 growth inhibition – luminescence, BacTiterGlo, counter-screen for streptokinase expression inhibitor project, dose response (AID 1915); format: functional, organism-based;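 further: potency for reduction of bacterial viability or growth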
[7] = tested on: Streptococcus sp. 'group A'; test: Streptococcus pyogenes SK(-)GAS viability under kanamycin – luminescence, BacTiterGlo, confirmation, counter-screen for streptokinase expression inhibitor project, dose response (AID 1900); format: functional, organism-based
[8] = target: T5, Corticotropin-releasing factor receptor 2/Corticotropin-releasing factor-binding protein (Homo sapiens, UniProt P24387+Q13324); test: activators of CRF receptor 2 with binding protein – uHTS hits, confirmation (AID 602473); format: functional; settings: read-out: EC50_Mean
T5 sequence (Q13324 whole entry): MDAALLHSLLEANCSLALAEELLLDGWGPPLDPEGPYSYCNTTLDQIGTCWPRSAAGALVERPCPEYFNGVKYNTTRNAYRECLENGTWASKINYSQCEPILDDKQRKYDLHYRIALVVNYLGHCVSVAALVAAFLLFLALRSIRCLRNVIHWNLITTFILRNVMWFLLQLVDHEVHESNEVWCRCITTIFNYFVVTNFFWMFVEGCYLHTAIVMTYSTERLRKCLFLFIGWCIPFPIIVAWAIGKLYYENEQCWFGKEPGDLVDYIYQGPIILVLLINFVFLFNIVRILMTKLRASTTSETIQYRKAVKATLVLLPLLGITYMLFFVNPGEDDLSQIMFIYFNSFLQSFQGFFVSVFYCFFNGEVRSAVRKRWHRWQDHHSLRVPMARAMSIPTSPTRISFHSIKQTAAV
T5 sequence (P24387 whole entry): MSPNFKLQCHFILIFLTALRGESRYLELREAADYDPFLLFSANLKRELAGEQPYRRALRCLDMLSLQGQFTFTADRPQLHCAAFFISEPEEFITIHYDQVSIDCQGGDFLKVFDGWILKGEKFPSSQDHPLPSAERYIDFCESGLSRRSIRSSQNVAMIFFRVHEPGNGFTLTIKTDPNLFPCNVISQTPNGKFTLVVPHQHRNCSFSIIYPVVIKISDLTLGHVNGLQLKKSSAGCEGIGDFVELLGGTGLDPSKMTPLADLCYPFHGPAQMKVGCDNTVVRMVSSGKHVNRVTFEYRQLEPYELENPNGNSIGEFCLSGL

[9] = Luminescence Cell-Based Dose Retest to Confirm Inhibitors of Cancer Stem Cells. [Related pubchem assays (depositor defined):AID2717, AID2721]; format: functional; settings: Homo sapiens
SUMO-activating enzyme = SUMO-activating enzyme (Homo sapiens, UniProt Q9UBT2); test: blockers of UBC9-mediated SUMO conjugation – biochemical, AlphaScreen, SUMOylation inhibitor project, confirmation (AID 2018); format: functional
Sequence of SUMO-activating enzyme (Q9UBE0 whole entry): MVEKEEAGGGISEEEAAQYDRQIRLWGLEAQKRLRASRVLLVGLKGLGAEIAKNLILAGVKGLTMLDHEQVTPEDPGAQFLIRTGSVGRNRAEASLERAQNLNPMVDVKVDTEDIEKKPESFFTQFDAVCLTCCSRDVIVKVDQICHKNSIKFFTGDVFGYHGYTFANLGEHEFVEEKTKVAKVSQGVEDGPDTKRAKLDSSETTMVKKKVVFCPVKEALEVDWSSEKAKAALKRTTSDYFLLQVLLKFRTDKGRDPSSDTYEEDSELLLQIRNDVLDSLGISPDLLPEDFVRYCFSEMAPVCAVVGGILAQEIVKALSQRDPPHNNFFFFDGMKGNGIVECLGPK
Sequence of SUMO-activating enzyme (Q9UBT2 whole entry): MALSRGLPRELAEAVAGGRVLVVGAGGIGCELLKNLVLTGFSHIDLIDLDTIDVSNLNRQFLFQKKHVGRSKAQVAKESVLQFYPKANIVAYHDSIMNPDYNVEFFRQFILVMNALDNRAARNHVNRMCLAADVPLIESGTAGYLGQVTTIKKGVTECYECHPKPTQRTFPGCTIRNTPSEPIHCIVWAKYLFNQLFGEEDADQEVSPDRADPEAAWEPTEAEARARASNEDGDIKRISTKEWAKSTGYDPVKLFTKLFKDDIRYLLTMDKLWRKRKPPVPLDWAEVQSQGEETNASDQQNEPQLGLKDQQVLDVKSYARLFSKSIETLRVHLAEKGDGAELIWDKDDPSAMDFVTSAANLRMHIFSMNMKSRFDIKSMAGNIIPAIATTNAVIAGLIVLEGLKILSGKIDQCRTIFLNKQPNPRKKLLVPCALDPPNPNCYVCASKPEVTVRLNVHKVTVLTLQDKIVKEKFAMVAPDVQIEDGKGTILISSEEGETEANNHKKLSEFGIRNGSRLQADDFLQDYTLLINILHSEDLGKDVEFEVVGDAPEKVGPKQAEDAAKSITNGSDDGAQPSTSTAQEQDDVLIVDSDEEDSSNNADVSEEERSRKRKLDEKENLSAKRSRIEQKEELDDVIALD

Nonstructural protein 1 = Nonstructural protein 1 (Influenza A virus, UniProt Q194T2); format: functional, Influenza A virus (A/California/07/2009(H1N1))
Sequence of Nonstructural protein 1 (Q194T2 whole entry): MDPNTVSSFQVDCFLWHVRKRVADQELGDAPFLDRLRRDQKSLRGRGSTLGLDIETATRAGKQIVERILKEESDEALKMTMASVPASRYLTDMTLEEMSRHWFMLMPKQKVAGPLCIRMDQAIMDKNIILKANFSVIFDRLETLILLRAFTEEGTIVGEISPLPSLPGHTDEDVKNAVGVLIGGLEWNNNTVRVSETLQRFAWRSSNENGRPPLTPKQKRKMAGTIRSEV

[10] = non-specific 3'UTR reporter inhibition in Clone20-Shn3RL – cell-based, Renilla luciferase, cherry-picked, counter-screen for Shn3 inhibitor project, dose response (AID 624133); format: functional
[11] = reduction of Shn3 3'UTR-driven luciferase in osteoblasts – cell-based, Clone20 osteoblasts, firefly luciferase, cherry-picked, dose response (AID 624132); format: functional;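 further: firefly luciferase luminescence from reporter carrying the Shn3 3'UTR in osteoblasts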
[12] = loss of viability in HepG2 cells – cell-based, CellTiter-Glo, cherry-picked, cytotoxicity control for Shn3 inhibitor project, dose response (AID 624134); format: functional
[13] = target: T6, Short transient receptor potential channel 4 (Mus musculus, UniProt Q9QUQ5); test: calcium entry via TRPC4 opening agents – cell-based, HEK293 TRPC4/mu-opioid, Fluo-4 calcium, dose response (AID 434937); format: functional
T6 sequence (Q9QUQ5 whole entry): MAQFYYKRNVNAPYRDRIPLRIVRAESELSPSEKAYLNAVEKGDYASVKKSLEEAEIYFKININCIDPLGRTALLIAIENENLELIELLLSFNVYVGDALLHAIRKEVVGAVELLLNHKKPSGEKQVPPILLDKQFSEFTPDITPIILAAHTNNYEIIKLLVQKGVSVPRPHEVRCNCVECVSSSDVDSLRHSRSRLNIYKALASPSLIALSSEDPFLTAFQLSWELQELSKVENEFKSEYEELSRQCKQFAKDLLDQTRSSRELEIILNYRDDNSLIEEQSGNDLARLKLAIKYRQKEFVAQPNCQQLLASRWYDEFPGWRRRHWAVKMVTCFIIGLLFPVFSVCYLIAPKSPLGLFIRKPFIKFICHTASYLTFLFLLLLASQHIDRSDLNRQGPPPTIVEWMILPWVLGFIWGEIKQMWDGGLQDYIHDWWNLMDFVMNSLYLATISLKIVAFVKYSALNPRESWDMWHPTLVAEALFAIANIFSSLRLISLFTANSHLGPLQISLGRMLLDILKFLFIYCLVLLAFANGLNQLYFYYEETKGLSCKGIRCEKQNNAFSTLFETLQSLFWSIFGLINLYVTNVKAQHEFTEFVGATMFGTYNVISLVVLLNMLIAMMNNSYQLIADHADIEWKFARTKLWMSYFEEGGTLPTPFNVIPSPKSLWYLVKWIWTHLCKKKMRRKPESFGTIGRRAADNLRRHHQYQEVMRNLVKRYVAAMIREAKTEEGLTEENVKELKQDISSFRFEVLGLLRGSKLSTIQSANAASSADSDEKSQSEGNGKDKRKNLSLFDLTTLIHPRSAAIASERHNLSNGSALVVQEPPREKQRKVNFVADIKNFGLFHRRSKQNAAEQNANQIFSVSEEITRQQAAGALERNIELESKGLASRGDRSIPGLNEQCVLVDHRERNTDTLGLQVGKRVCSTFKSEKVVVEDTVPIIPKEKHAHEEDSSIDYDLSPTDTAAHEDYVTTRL

Compound: CC(C)N1C(=O)NC(=O)C2(Cc3cc([N+](=O)[O-])ccc3N(C)C2c2ccccc2)C1=O (stereo not drawn)
- IC50 (cells): 27.3 µM (active)
- CC50 [1]: > 40 µM (active)
- CC50 [2]: > 40 µM (active)

Compound: CCOC(=O)CNC(=O)CNC(=O)c1nn(-c2ccc(OC)c(Cl)c2)c(=O)c2ccccc12
- IC50 (cells): 17.8 µM (active)
- CC50 [1]: > 40 µM (active)

Compound: CCc1cccc2c(C(=O)C(NC(C)CC)c3ccccc3)c[nH]c12 (stereo not drawn)
- IC50 (Bcl-2-related protein A1): > 20 µM (inactive)
- IC50 [3]: 9.25 µM (active)
- IC50 [4]: 16.6 µM (active)

Compound: CCn1c(=O)cc(OCC(=O)Nc2ccc(OC)c(OC)c2)c2ccccc21
- IC50 [5]: > 80 µM (inactive)

Compound: Cc1cc(OC(=O)c2ccccc2Cl)cc(=O)n1C
- IC50 [5]: > 80 µM (inactive)

Compound: Cc1nn(CC(=O)NCCCN2CCC(Cc3ccccc3)CC2)c(=O)c2cc(-c3ccccc3)nn12
- IC50 (Bcl-2-related protein A1): > 20 µM (inactive)
- EC50 [6]: > 195 µM (not active)
- IC50 [3]: 4.59 µM (active)
- IC50 [4]: 11.4 µM (active)

Compound: Cc1ccc(C(=O)N2CCCC(c3ccc(Cl)cc3)=N2)cc1
- IC50 [5]: > 80 µM (inactive)

Compound: CCCS(=O)(=O)c1ncc(Cl)c(C(=O)Nc2ccc(S(=O)(=O)Nc3ncccn3)cc2)n1
- IC50 (Bcl-2-related protein A1): > 20 µM (inactive)
- IC50 [3]: > 20 µM (inactive)
- IC50 [4]: 14 µM (active)

Compound: O=C(Nc1ccc(C(=O)NCCCN2CCN(c3ccc(F)cc3)CC2)cc1)C1=CSCCO1
- IC50 (Bcl-2-related protein A1): > 20 µM (inactive)
- IC50 [3]: 10.3 µM (active)
- IC50 [4]: 12.5 µM (active)

Compound: CNC(=O)C1(C)C=CC2(CCCCC2)N1C(C)=O (stereo not drawn)
- AC50 (Cytochrome P450 3A4): 15.8 µM (inconclusive)

Compound: COc1cccc(OCC(=O)NN=C2c3ccccc3-c3ccccc32)c1
- AC50 (Cytochrome P450 2C9): inconclusive

Compound: Cc1cccc(Oc2coc3cc(OC(=O)c4cccs4)ccc3c2=O)c1
- AC50 (Cytochrome P450 1A2): 14.1 µM (inconclusive)
- AC50 (Cytochrome P450 2C9): inconclusive

Compound: CC1=C(C(=O)OCc2ccccc2)C(c2ccc(C(F)(F)F)cc2)NC(=O)N1CCCCCC(=O)O (stereo not drawn)
- AC50 (Cytochrome P450 3A4): 15.8 µM (inconclusive)

Compound: O=C(Nc1nnc(-c2ccc(Cl)cc2)o1)c1nc2ccccc2s1
- EC50 (Streptococcus): 936 nM (active)
- EC50 [7]: 289 nM (active)
- IC50 (cells): 1.5 µM (active)
- CC50 [1]: > 40 µM (active)
- EC50 [8]: 2.26 µM (active)
- AC50 [9]: 3.56 µM (active)

Compound: O=C(Nc1nnc(-c2ccccc2SCc2ccccc2)s1)Nc1ccccc1F
- IC50 (SUMO-activating enzyme): 46.5 µM (active)

Compound: NNc1nccc(Nc2ccccc2C(=O)O)n1
- IC50 (Nonstructural protein 1): 8.21 µM (active)

Compound: Oc1c(CN2CCCCC2)ccc2cccnc12
- AC50 [10]: 3.77 µM (active)
- IC50 (Nonstructural protein 1): 2.05 µM (active)
- AC50 [11]: 2.11 µM (active)
- AC50 [12]: 52.3 µM (active)

Compound: NC(=O)CC(NC(=O)Cc1cccc2ccccc12)c1ccc(NC2CCCCCC2)c([N+](=O)[O-])c1 (stereo not drawn)
- IC50 (SUMO-activating enzyme): > 100 µM (inactive)

Compound: COc1ccc(C(CCNCc2ccc(N(C)C)cc2)c2ccccc2OC)cc1 (stereo not drawn)
- IC50 (Nonstructural protein 1): 20.2 µM (active)
- EC50 [13]: 10.6 µM (active)

Compound: Cc1ccc(S(=O)(=O)N2CCCCC2CCNC(=O)C(=O)NCc2ccncc2)cc1 (stereo not drawn)
- IC50 [5]: > 80 µM (inactive)

Compound: COc1cc2cc[n+]3cc4c(OC)c(OC)ccc4cc3c2cc1OC
- AC50 (Cytochrome P450 3A4): 20 µM (inconclusive)
